Data taken from patent US20210147544A1, “METHODS AND COMPOSITIONS FOR TARGETED DELIVERY OF ACTIVE AGENTS AND IMMUNOMODULATORY AGENTS TO LYMPH NODES” (IMMUNOVACCINE TECHNOLOGIES INC., priority 2018, published 2021).

What was measured:
lymph node cells = assay type: in vivo, C57BL/6 mice; settings: group E: 20 mg/kg/day CPA in drinking water for seven days before FP/PolyI:C composition; vs group F
Method: Pathogen free, C57BL/6 mice, 6-8 weeks of age, were purchased from Charles River Laboratories (St. Constant, PQ) and housed according to institutional guidelines with water and food ad libitum under filter controlled air circulation.
Mice in group A (n=5) were injected in the right flank with 50 microliters of the CPA composition containing 0.04 milligrams of CPA and injected in the left flank with 50 microliters of the FP/DNA based PolyI:C polynucleotide composition containing 10 micrograms of FP and 20 micrograms of DNA based polyl:C polynucleotide adjuvant.
Mice in group B (n=5) were injected in the right flank with 50 microliters of the CPA composition containing 0.4 milligrams of CPA and injected in the left flank with 50 microliters of the FP/DNA based PolyI:C polynucleotide composition containing 10 micrograms of FP and 20 micrograms of DNA based polyl:C polynucleotide adjuvant.
Mice in group C (n=5) were injected in the right flank with 50 microliters of the CPA/FP/PolyI:C composition containing 0.04 milligrams of CPA and 10 micrograms of FP and 20 micrograms of DNA based polyI:C polynucleotide adjuvant.
Mice in group D (n=5) were injected in the right flank with 50 microliters of the CPA/FP/PolyI:C composition containing 0.4 milligrams of CPA and 10 micrograms of FP and 20 micrograms of DNA based polyI:C polynucleotide adjuvant. […]

[1] = AlexaFluor488 (AF488) positive cells in LN, blood, liver, spleen by flow cytometry; assay type: in vivo, C57B1/6 mice
Method: (§1) C57B1/6 mice (n=2-3 per time point) were injected subcutaneously on study day 0 with 0.1 mg of AlexaFluor488 hydrazide (AF488) dye formulated either in a composition of the invention (DPX, group 1) or in an aqueous solution (group 2). Control groups were injected subcutaneously with DPX not containing AF488 (group 3) or not given an injection (group 4). DPX compositions were prepared according to the methods detailed in Example 1. The freeze-dried vial was reconstituted in Montanide® ISA 51 VG (SEPPIC, France). Cells were collected from the vaccine-draining lymph nodes (LN), blood, liver, and spleen from 2-3 mice of each group on study days 1, 2, 5, and 7, and the cells were stained to detect different cell populations by flow cytometry.
AF488 (MW 773.91 g/mol) is a membrane impermeant fluorescent dye that can be actively internalized by phagocytic cells, such as macrophages and dendritic cells.

[2] = Body weights of C3 tumour mice during EPA treatment; assay type: in vivo; settings: all with mCPA (PO), oral EPA given with DPX-FP
Method: Mice (n=8 per group) were implanted with C3 cancer cells on study day 0. Mice in all treatment groups were treated with 0.4 mg metronomic cyclophosphamide (mCPA) daily for seven days through drinking water starting on study day 7 and 21 (oral administration: PO). One group was untreated as a control. One treatment group was treated with epacadostat (EPA) through oral gavage 6 mg/day for five days starting on study day 14 for a total EPA dose of 30 mg over 5 days. Mice were treated with a composition of the invention (DPX) containing either FP alone (DPX-FP) or FP in combination with EPA (DPX-FP/EPA, 1 mg EPA). DPX was administered by subcutaneous injection to the treatment groups on study day 14 and 28, for a total EPA dose of 2mg over […] in the group receiving DPX-FP/EPA. The DPX compositions were prepared according to the methods detailed in Example 1. All DPX-FP and DPX-FP/EPA formulations contained 20 micrograms of DNA based PolyI:C polynucleotide adjuvant. The freeze-dried vials were reconstituted in 0.7 mL of Montanide® ISA 51 VG (SEPPIC, France) to obtain a clear solution (FIG. 1; Panel D).

[3] = Evans Blue (EVB) positive cells in LN, blood, liver, spleen by flow cytometry; assay type: in vivo, C57B1/6 mice
Method: as §1, with “(n=3” for “(n=2-3”, “1” for “0.1”, “Evans Blue (EVB)” for “AlexaFluor488 hydrazide (AF488)”, “EVB” for “AF488”
EVB (MW 960.81 g/mol) is a membrane impermeant dye with high affinity for serum albumin that can penetrate into non-viable cells or be actively internalized by phagocytic cells, such as macrophages and dendritic cells.

[4] = Photographs of plasma, skin and draining lymph node after EVB injection; assay type: in vivo, C57B1/6 mice
Method: as §1, with “(n=3” for “(n=2-3”, “1” for “0.1”, “Evans Blue (EVB)” for “AlexaFluor488 hydrazide (AF488)”, “EVB” for “AF488”

[5] = 0.1 mg AF488 s.c., days 1, 2, 5, 7, significance compared to group 3
[6] = 1 mg EVB s.c., days 1, 2, 5, 7, significance compared to group 3
[7] = by day 2, including CD3+ T cells

O=P1(N(CCCl)CCCl)NCCCO1 (centres unmarked) [CPA, N,N-bis(2-chloroethyl)-1,3,2-oxazaphosphinan-2-amine 2-oxide]
total lymph node cell counts (lymph node cells): significantly lower cell counts compared to group F

AlexaFluor488 hydrazide [AF488 in aqueous solution]
AF488 release into the blood (FIGS. 11D-F) ([1]; 0.1 mg AF488 s.c.): quickly peaked at day 1 | release of AF488 into the spleen (FIGS. 11G-I) ([1]; 0.1 mg AF488 s.c.): rapid and significant release of AF488 into the spleen in all cell types | AF488+ CD11b+ cells in the LN (FIG. 11A) [1, 5]: significant number of AF488^+CD11b^+ cells on days 1 and 2 | AF488+ CD11b+ cells in the blood (FIG. 11D) [1, 5]: significant number of AF488^+ CD11b^+ cells on days 1 and 2 | AF488+ T cells in the LN (FIG. 11C) [1, 5]: significant number of AF488^+ T cells on day 1 | AF488+ T cells in the blood (FIG. 11F) [1, 5]: significant number of AF488^+ T cells on days 1 and 2 | AF488+ T cells in the liver (FIG. 11I) [1, 5]: significant number of AF488^+ T cells on all days collected | AF488+ dendritic cells in the LN (FIG. 11B) [1, 5]: significant number of AF488^+ dendritic cells on day 1 | AF488+ dendritic cells in the blood (FIG. 11E) [1, 5]: significant number of AF488^+ dendritic cells on days 1 and 2 | AF488+ dendritic cells in the liver (FIG. 11H) [1, 5]: significant number of AF488^+ dendritic cells on days 1, 2, and 5 | AF488+ monocytes in the liver (FIG. 11G) [1, 5]: significant number of AF488^+ monocytes on days 1, 2, and 5 | AF488 release into and clearance from the LN (FIGS. 11A-C) ([1]; 0.1 mg AF488 s.c., days 1 to 7): quickly peaked at day 1 and AF488 was cleared by day 5-7 | circulating CD11b+ cells being AF488+ ([1]; blood, days 1-2): over 70%

NS(=O)(=O)NCCNc1nonc1C(=NO)Nc1ccc(F)c(Br)c1 [oral EPA (PO), epacadostat]
weight loss during treatment (body weights) [2]: significant weight loss during treatment

Cc1cc(-c2ccc(/N=N/c3ccc4c(S(=O)(=O)O)cc(S(=O)(=O)O)c(N)c4c3O)c(C)c2)ccc1/N=N/c1ccc2c(S(=O)(=O)O)cc(S(=O)(=O)O)c(N)c2c1O [EVB in aqueous solution, Evans Blue]
EVB+ CD11c+ dendritic cells in the liver ([3]; 1 mg EVB s.c.): a large number dendritic cells were EVB+ by day 2 | EVB+ CD11b+ cells in the LN (FIG. 10A) [3, 6]: significant number of EVB^+ CD11b^+ cells on all days tested | EVB+ CD11b+ cells in the blood (FIG. 10D) [3, 6]: significant number of EVB^+ CD11b^+ cells on all days tested | EVB+ CD11b+ cells in the liver (FIG. 10G) [3, 6]: significant number of EVB^+ CD11b^+ cells on all days tested | EVB+ CD11b+ cells in the spleen (FIG. 10J) [3, 6]: significant number of EVB^+ CD11b^+ cells on all days tested | EVB+ T cells in the LN (FIG. 10C) [3, 6]: significant number of EVB^+ T cells on all days tested | EVB+ T cells in the blood (FIG. 10F) [3, 6]: significant number of EVB^+ T cells on all days tested | EVB+ T cells in the liver (FIG. 10I) [3, 6]: significant number of EVB^+ T cells on all days tested | EVB+ T cells in the spleen (FIG. 10L) [3, 6]: significant number of EVB^+ T cells on all days tested | EVB+ dendritic cells in the LN (FIG. 10B) [3, 6]: significant number of EVB^+ dendritic cells on all days tested | EVB+ dendritic cells in the blood (FIG. 10E) [3, 6]: significant number of EVB^+dendritic cells on all days tested | EVB+ dendritic cells in the liver (FIG. 10H) [3, 6]: significant number of EVB^+ dendritic cells on days 2 and 7 | EVB+ dendritic cells in the spleen (FIG. 10K) [3, 6]: significant number of EVB^+dendritic cells on all days tested | EVB release into and clearance from the LN (FIGS. 10A-C) ([3]; 1 mg EVB s.c., days 1 to 7): had still not been cleared from the LN by day 7 | EVB release into and clearance from the blood (FIGS. 10D-F) ([3]; 1 mg EVB s.c., days 1 to 7): still not been cleared from the blood by day 7 | EVB release into and clearance from the spleen (FIGS. 10J-L) ([3]; 1 mg EVB s.c., days 1 to 7): still saturated in CD11b+ macrophages and T cells by day 7 | saturation of cell types in the blood with EVB ([3]; 1 mg EVB s.c., days 1 to 7): CD11b+ macrophages and CD3+ T cells that were still nearly saturated on day 7 | macrophages and T cells EVB+ in the liver ([3]; by day 1-2): ~100% | cells EVB+ in the spleen ([3]; by day 1-2, including CD3+ T cells): ~100% | cells EVB+ in the LN [3, 7]: ~100% | cells EVB+ in the blood [3, 7]: ~100% | blue colouration of skin, injection site and draining LN (FIG. 13) ([4]; 1 mg EVB s.c.): turned blue | colour of plasma (FIG. 12) ([4]; days 1, 2, 5, and 7 after injection): dark blue
